Measurements: PMC8885659, “Asymmetric, amphiphilic RGD conjugated phthalocyanine for targeted photodynamic therapy of triple negative breast cancer” (Signal Transduction and Targeted Therapy, 2022)

Key:
[1] = Singlet oxygen yield detection with DPBF; assay type: physicochemical; conditions: physiological saline containing 1% CEL; for Slope of DPBF bleaching (singlet oxygen yield): laser 610 nm, 225 mW/cm^2, DPBF absorbance at 414 nm
Excerpt: Generation of singlet oxygen was detected chemically using the disodium salt of 1,3-diphenylisobenzofuran (DPBF) as a singlet oxygen sensor. DPBF is bleached by singlet oxygen to its corresponding endoperoxide. The reaction was monitored spectrophotometrically by recording the decrease in optical density at 414 nm. The bleaching rate of DPBF can also be used as a method to compare the yield of singlet oxygen. In the actual measurement of singlet oxygen yield, a certain amount of DPBF ethanol solution and test solution are mixed together in a dark room. A rotor is added to the cuvette, and the laser is irradiated for different times while stirring. The absorption spectra of the mixed solution was tested after different time of irradiation with an ultraviolet spectrophotometer, then the change of the absorption value of DPBF at 414 nm was obtained.

4T1 cells [2] = assay: Subcellular co-localization with lysosomes (confocal); assay type: cell-based, murine; conditions: 1 μM, 4 h incubation, Lysotracker, n = 3
Protocol: Subcellular colocalization pictures were taken under a laser confocal microscope (Nikon A1R high-speed confocal laser microscope, Nikon Corporation, Japan). 4T1 cells were cultured in 35 mm cell culture dishes at a density of 20,000 cells/dish, and cultured overnight. After 24 h, the medium was replaced with DMEM medium (containing 0.05% CEL) containing 1 μM RSP or SC. After 4 h of incubation, the plates were washed with PBS and then stained with DMEM medium containing Lysotracker for 30 min and washed again with PBS. Then fixed and counterstained with DAPI. The light was always avoided during the entire operation. The dynamic change of fluorescence on any straight line passing through the whole cell was analyzed by Image J. The result was plot to qualitatively analyze the co-localization situation of lysosome and phthalocyanine. In order to more completely reflect the co-localization of lysosomes and phthalocyanines, the Pearson co-localization coefficient was analyzed on the fluorescence fields of cells obtained from three photographs, and the difference in lysosomal localization of RSP and SC in the cells was quantitatively analyzed.

4T1 cells [3] = assay: Cytotoxicity assay (CCK8), phototoxicity and dark toxicity; assay type: cell-based, murine; conditions: for Dark toxicity: cell viability without light: no light, CCK8, n = 5
Protocol: 4T1 cells were seeded in a 96-well plate at a density of 10,000 cells/well, and each well was cultured overnight with 200 μL of DMEM medium containing 10% FBS. On the second day, the original medium was discarded and replaced with DMEM medium containing different concentrations of SC or RSP (containing 0.05% CEL). After 4 h of incubation, the cells were incubated with fresh medium and irradiated with a xenon lamp. Then 10 μL of CCK8 was added to each well, and the incubation continued for 1 h. After the incubation, the absorbance value at 450 nm was measured with enzyme labels (Synergy HT, BioTek, USA). At the same time, a blank control was set to determine cell viability. The dark toxicity test method was similar, except that no light was applied to the cells.

[4] = Biological safety in the PDT study (body weight, H&E of main organs); assay type: in vivo, Balb/c mice; conditions: for Mouse body weight change: all treatment groups with or without light, 2 mg/kg i.v., n = 5
Protocol: (§1) PDT treatment was performed on the 7th day when the 4T1 tumor model was established in mice, and the average initial tumor volume was 100 mm^3. The test groups were as follows: Group 1: PBS; Group 2: Light; Group 3: SC; Group 4: RSP; Group 5: SC + Light, Group 6: RSP + Light. First, 200 μl of RSP (2 mg/kg), SC (2 mg/kg), and PBS were injected intravenously. 4 h after the injection, the tumor area was irradiated with 671 nm laser (0.1 W/cm^2) for 6 min with a total laser intensity of 36 J/cm^2 and laser treatment was performed on groups 2, 5, and 6. After PDT treatment, the tumor size was measured every day using electronic vernier calipers until 12 days. The maximum width (X) and length (Y) of the tumor were measured, and the following formula was used to calculate the tumor volume: V = (X^2Y)/2. From the first day of treatment, the weight change of each group of mice was recorded until the end of the treatment. Mice in each group were selected randomly, and excised tumors for pathological analysis. In order to investigate the biological safety of this PDT method, after the treatment, the main organs (heart, liver, spleen, lung, kidney) of each group of differently treated mice were dissected, and H&E section staining was performed to evaluate their Pathological changes.

4T1 tumor model = assay: In vivo photodynamic activity; design: species or system Balb/c mice; conditions: for Tumor volume without light versus PBS and Light groups: no laser
Protocol: (§2) Balb/c female mice aged 6 to 8 weeks were purchased from Beijing Weitong Lihua Laboratory Animal Technology. All animal experiments were performed under protocols approved by the Institutional Animal Care and Use Committee (IACUC) of Peking University. In situ breast cancer tumor models were established by injecting 2 * 10^7 4T1-luci tumor cells under the fourth pair of mammary glands in mice. Treatment was initiated approximately 6 days after inoculation when the tumor volume grew to approximately 100 mm^3.
as §1

[5] = Blood circulation dynamics and organ distribution; assay type: in vivo, Balb/c mice
Protocol: The ideal targeted photosensitizer should be able to quickly accumulate at the tumor site and metabolize from normal organs after injection. […] After 24 h, 48 h, and 120 h of RSP injection, the major organs of the mice were dissected and their fluorescence was quantified.
In order to investigate the blood clearance rate of RSP, healthy male Balb/c mice were selected as experimental subjects, and blood was collected from the orbit to detect the drug concentration in the body at different time points. Fluorescence labeled Organism Bioimaging Instrument (FOBI, South Korea) was used to measure the relative concentration of phthalocyanine in mouse plasma. Mice were injected with RSP through the tail vein at a dose of 2 mg/kg. At different time intervals, blood samples were collected from the orbits of mice with capillary tubes coated with heparin, placed on ice, and centrifugated to separate blood cells (3000 g, 10 min). The resulting plasma samples were analyzed for phthalocyanine concentration.

[6] = Photostability under laser irradiation; assay type: physicochemical; conditions: 4 mins of laser irradiation, 225 mW/cm^2, UV-vis absorption
Protocol: In order to better simulate the situation of photosensitive molecules in practical applications, the singlet oxygen yield of RSP in physiological saline containing 1% CEL was measured (Fig. 2c). The slope of RSP and SC was 0.06481 and 0.07165 respectively (Supplementary Fig. 6). […] We further determined the photostability of RSP. […] The axial modification of RSP helped to improve the stability of the phthalocyanine parent ring when singlet oxygen was generated, so that it was less prone to degrade.

[7] = Solubility and aggregation state (absorption spectra); assay type: physicochemical
Excerpt: Therefore, we dissolved RSP in physiological saline containing 1% CEL, DMEM medium containing 0.05% CEL, and DMF (as a control) to measure its absorption and fluorescence spectrum. […] RSP had the characteristics of not being aggregated in physiological saline and cell culture media, which provides a basis for further investigation of its phototoxicity.

4T1 cells [8] = assay: Apoptosis/necrosis by flow cytometry after TPDT; assay type: cell-based, murine; conditions: 500 nM, 4 h incubation, with light
Protocol: The apoptosis rate and necrosis rate of the cells were detected on the flow cytometer according to the operating procedure of the apoptosis detection kit. 4T1 cells were seeded in a six-well plate at a density of 5 * 10^5 cells/well overnight. On the second day, the medium was changed to DMEM medium containing 500 nM RSP/SC and 1% CEL, and the cells were incubated for 4 h. Then the medium was replaced with fresh DMEM. The cells were applied light/ no light, and then digested.

4T1 tumor = assay: In vivo fluorescence imaging of tumor targeting; design: species or system Balb/c mice
Protocol: as §2
For in vivo fluorescence imaging, RSP or SC dissolved in physiological saline (containing 1% CEL) was injected intravenously at a dose of 2 mg/kg into tumor-bearing mice (both in situ and subcutaneous models). Then IVIS Spectrum In Vivo Imaging System (PerkinElmer) was utilized to collect the fluorescence signals of RSP (660 nm/710 nm) in subcutaneous models at different times after the injection. The small animal fluorescence imaging system was used for in situ tumor-bearing mice imaging, taking pictures, and recording. The excitation wavelength was 660 nm, and the fluorescence signal was collected with a 700 nm filter. Then, the FOBI software was used to process the data to analyze the enrichment of phthalocyanines in the tumors of the mice after different injection times. The mice after 24 h fluorescence imaging were sacrificed, and the hearts, livers, spleens, lungs, kidneys, and tumors were collected for analysis of fluorescence semiquantitative biodistribution.

[9] = RSP + light (RSPL), tumor sections, n = 3
[10] = subcutaneous tumor model, 2 mg/kg tail vein, n = 3

Q: With “2[4-(3-carboxypropyl)phenoxy]silicon phthalocyanine [SC]” as the molecule, how does the “Slope of DPBF bleaching (singlet oxygen yield)” value [1] read?
A: 0.07165

Q: What about the “Lysosomal colocalization index (Pearson co-localization coefficient)” value (4T1 cells [2]) of the same molecule?
A: 0.38

Q: And the “Dark toxicity: cell viability without light” value (4T1 cells [3])?
A: did no significantly decreased

Q: What about the “Mouse body weight change” value [4] of the same molecule?
A: no significant changes

Q: What about the “Tumor volume without light versus PBS and Light groups” value (4T1 tumor model; 2 mg/kg i.v., n = 5) of the same molecule?
A: no significant difference

Q: And the “Inhibition of tumor cell proliferation with light, in words” value (4T1 tumor model; SC + light, 2 mg/kg i.v., 671 nm laser 36 J/cm^2, tumor weight, n = 5)?
A: not significantly inhibited

Q: What does the source list for `N=C(N)NCCC[C@@H]1NC(=O)[C@H](CCCCNC(=O)CCc2ccc(O[Si]3(Oc4ccc(CCC(=O)O)cc4)n4c5c6ccccc6c4N=C4N=C(N=c6c7ccccc7c(n63)=NC3=NC(=N5)c5ccccc53)c3ccccc34)cc2)NC(=O)[C@@H](Cc2ccc(O)cc2)NC(=O)[C@H](CC(=O)O)NC(=O)CNC1=O` (stereo partly shown) [RSP, cRGDyK modified targeting silicon phthalocyanine]?
A: Decrease of singlet oxygen yield relative to SC [1]: 10%; Slope of DPBF bleaching (singlet oxygen yield) [1]: 0.06481; Elimination half-time (t1/2β) ([5]; healthy male Balb/c mice, 2 mg/kg tail vein, plasma fluorescence (FOBI)): 463.02 min; Fluorescence of main organs 120 h after injection ([5]; mice, 2 mg/kg intravenous, 120 h, n = 3): no obvious fluorescent signal can be detected; Fraction metabolized in 48 h ([5]; mice, 2 mg/kg intravenous, fluorescence of main organs, n = 3): more than 90%; Lysosomal colocalization index (Pearson co-localization coefficient) (4T1 cells [2]): 0.78; Absorbance at maximum absorption wavelength remaining after irradiation (photostability) [6]: about 80%; Solubility in aqueous solutions with Cremophor EL ([7]; aqueous solutions with 1 % Cremophor EL (CEL)): good solubility; Aggregation state from absorption spectra ([7]; physiological saline containing 1% CEL and DMEM medium containing 0.05% CEL, compared with DMF): remained monomer; Solubility in pure water ([7]; pure water): limited solubility; Dark toxicity: cell viability without light (4T1 cells [3]): did no significantly decreased; Killing effect upon exposure to light compared with SC (4T1 cells [3]; λ > 610 nm, 48 J/cm^2, 0 to 2 μM): lower killing effect; H&E pathology of heart, liver, spleen, lung and kidney ([4]; after treatment, RSP injection and laser irradiation): no obvious pathological phenomena; Mouse body weight change [4]: no significant changes; Tumor volume without light versus PBS and Light groups (4T1 tumor model; 2 mg/kg i.v., n = 5): no significant difference; Apoptosis in tumor tissue (TUNEL) relative to SCL group (4T1 tumor model; [9]): twice that of SCL group; Ki67 proliferation signal as % of PBS control group (4T1 tumor model; [9]): 10%; Ki67 proliferation signal as fraction of SCL group (4T1 tumor model; [9]): 1/4; Increase of apoptotic rate compared with SC (4T1 cells [8]): 9.73%; plasma half-life (t1/2α): 45 min; Fluorescence signal of excised tumor, relative to SC (semiquantitative) (4T1 tumor; organs and tumors dissected 24 h after injection, 2 mg/kg, n = 3): four folds higher than that of SC; Fluorescence intensity in orthotopic mouse tumors, folds of control (4T1 tumor; orthotopic mouse tumors, as worded in the introduction): 4 folds; Onset of tumor accumulation after injection (4T1 tumor; [10]): ≤ 0.5 h; Time of peak tumor fluorescence intensity after injection (4T1 tumor; [10]): 6 h; Fluorescence intensity of tumor site in vivo, folds of SC (4T1 tumor; subcutaneous tumor model, 2 mg/kg, 24 h after injection, n = 3): 2.5 folds
